Calls of active or inactive are those of the source. The rule behind the calls is not given here.
Target: Peptidyl-prolyl cis-trans isomerase FKBP1A (Homo sapiens) (UniProt P62942)
Test: small-molecule binding to FKBP12 – biophysical, NMR detection (AID 608)
Conditions: purified FKBP12

Peptidyl-prolyl cis-trans isomerase FKBP1A (Homo sapiens), sequence (P62942 whole entry, looked up): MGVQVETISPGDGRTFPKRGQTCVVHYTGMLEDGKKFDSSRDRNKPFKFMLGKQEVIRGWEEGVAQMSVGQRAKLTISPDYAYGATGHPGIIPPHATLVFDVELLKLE

Structure (SMILES) | Kd
Cc1cc2ncn(S(=O)(=O)N3CCCCC3)c2cc1C | > 4 mM (inactive)
CCCCn1c(S(=O)(=O)O)nc2ccccc21 | > 4 mM (inactive)
O=C1CC2OCC=C3CN4CC[C@]56c7ccccc7N1C5[C@H]2[C@H]3CC46 (stereo partly specified) | > 4 mM (inactive)
CC(=O)Nc1ccc(-c2nc(C)c(C(C)=O)n2O)cc1 | > 4 mM (inactive)
CN(C)S(=O)(=O)c1ccc(C(=O)NN)cc1 | > 4 mM (inactive)
COC1=CC(C)[C@@H]2C[C@H]3OC(=O)C[C@H]4C(C)=C(OC)C(=O)C([C@@]34C)[C@@]2(C)C1=O (stereo partly specified) | > 4 mM (inactive)
CCC(=O)Nc1ccccc1NC(C)=O | > 4 mM (inactive)
CC(=O)O[C@H]1C[C@@H](OC(C)=O)C(C)(C)C2C[C@@H](OC(C)=O)[C@]3(C)C(CC[C@@]4(C)[C@H](c5ccoc5)OC(=O)[C@H]5O[C@]543)[C@]21C (stereo partly specified) | > 4 mM (inactive)
COc1ccc(C(=O)NNC(=S)NC(C)=O)cc1 | > 4 mM (inactive)
NC(=O)CSc1nnc(-c2ccncc2)o1 | > 4 mM (inactive)
COc1cnn(Cc2ccccc2)c(=O)c1Cl | > 4 mM (inactive)
Nc1ccc(CN2CCOCC2)cc1 | > 4 mM (inactive)
Cc1nc2cc(Cl)ccc2n1CCO | > 4 mM (inactive)
Nc1c(C(=O)O)sc2ncccc12 | > 4 mM (inactive)
Cc1cc(C(=O)c2c(C)nn(C)c2Cl)n(C)n1 | > 4 mM (inactive)
NS(=O)(=O)c1ccc(N=C2NC(=O)CS2)cc1 | > 4 mM (inactive)
COc1ccccc1NC(=O)NC(N)=O | > 4 mM (inactive)
COc1ccc(-c2cc(=O)c3c(O)cc(O)c(-c4cc(-c5cc(=O)c6c(O)cc(O)cc6o5)ccc4OC)c3o2)cc1 | > 4 mM (inactive)
CCCCCCCCCCCCCCC(C(=O)OC)C(O)(CC(=O)OC)C(=O)OC (stereo unspecified) | > 4 mM (inactive)
CC(=O)c1ccc(NC(=O)c2ocnc2C)cc1 | > 4 mM (inactive)
O=C1CC(=O)N(c2cccc(Cl)c2)N1 | > 4 mM (inactive)
NC(c1ccccc1)c1ccccn1 (stereo unspecified) | > 4 mM (inactive)
NC1Cc2ccccc2C1 | > 4 mM (inactive)
COC(=O)c1c(C)c2c(c(C)c1O)OC(=O)c1c(C)c(Cl)c(O)c(Cl)c1O2 | > 4 mM (inactive)
Nc1ccc2ncsc2c1 | > 4 mM (inactive)

Structure (SMILES) | Kd
CCOC(=O)c1c[nH]c2c(F)cccc2c1=O | > 4 mM (inactive)
O=C(O)c1ccc(-c2cnco2)cc1 | > 4 mM (inactive)
CC(=O)O[C@H]1CC[C@@]2(C)C(CC[C@]3(C)C2CC=C2C4CC(C)(C)CC[C@]4(C)CC[C@]23C)C1(C)C (stereo partly specified) | > 4 mM (inactive)
CC1CCN(C(=O)c2ccc(NS(C)(=O)=O)cc2)CC1 | > 4 mM (inactive)
Cc1ccc(OCC(=O)N2CCOCC2)cc1C | inactive
O=C(O)C1CSC(c2ccco2)N1 (stereo unspecified) | > 4 mM (inactive)
COc1ccc(/C=C2\SC(N)=NC2=O)cc1 | > 4 mM (inactive)
C=C(C)C1CC=C(CO)CC1 (stereo unspecified) | > 4 mM (inactive)
OCc1ccc(N2CCOCC2)cc1 | > 4 mM (inactive)
CC(C)CCCC(C)[C@H]1CCC2C3CC[C@@H]4C[C@H](O)CC[C@]4(C)C3CC[C@@]21C (stereo partly specified) | > 4 mM (inactive)
NC(=O)C1(c2ccccc2)CCOCC1 | > 4 mM (inactive)
O=C(c1ccc(F)cc1)N1CCOCC1 | > 4 mM (inactive)
CC1(C)N([O-])c2cc([N+](=O)[O-])ccc2[N+]1=O | > 4 mM (inactive)
Cn1cccc1C=C1C(=O)NC(=S)NC1=O | > 4 mM (inactive)
COc1ccc(NS(=O)(=O)N2CCOCC2)cc1 | > 4 mM (inactive)
O=c1[nH]c2c(c(=O)n1C1CCCCC1)CCC2 | > 4 mM (inactive)
NN1C(=O)CSC1=Nc1ccccc1 | > 4 mM (inactive)
COc1c2ccoc2cc2oc(=O)ccc12 | > 4 mM (inactive)
CC(=O)NC(c1ccccc1)c1cccnc1 (stereo unspecified) | > 4 mM (inactive)
O=C(O)c1ccc(-n2cncn2)cc1 | > 4 mM (inactive)
O=S1(=O)C=CC(N2CCCCC2)C1 (stereo unspecified) | > 4 mM (inactive)
Cc1nc(-c2ccccc2)ncc1C(=O)O | > 4 mM (inactive)
CNC(=O)c1cccc(NC(=S)NC)c1 | > 4 mM (inactive)
CN(C(=O)c1cc2cccnc2n(C)c1=O)c1ccccc1 | > 4 mM (inactive)
O=C1NC(=O)C(c2ccccc2)C(=O)N1 | > 4 mM (inactive)

Structure (SMILES) | Kd
COc1ccc2c(c1)O[C@@H]1COc3cc(OC)c(OC)cc3[C@@H]1C2=O | > 4 mM (inactive)
COc1cc([C@@H]2c3cc4c(cc3C(OC3O[C@@H]5COC(C)O[C@H]5[C@H](O)[C@H]3O)C3COC(=O)[C@@H]32)OCO4)cc(OC)c1O (stereo partly specified) | > 4 mM (inactive)
c1cc(C(N2CCOCC2)N2CCOCC2)ccn1 | > 4 mM (inactive)
O=C(O)c1snnc1-c1ccccc1 | > 4 mM (inactive)
CS(=O)(=O)Nc1cc2c3c(c1)CCN3C(=O)CC2 | > 4 mM (inactive)
Fc1ccc(CN2CCCNCC2)cc1 | > 4 mM (inactive)
CCOC(=O)Cn1cnc2sc3c(c2c1=O)CCC3 | > 4 mM (inactive)
O=C(COc1ccc(F)cc1)N1CCOCC1 | inactive
O=C(Cc1ccccc1)Nc1c[nH]c(=O)[nH]c1=O | > 4 mM (inactive)
CC[C@]12CCCN3CCc4c(n(c5ccccc45)[C@](O)(C(=O)OC)C1)[C@@H]32 | > 4 mM (inactive)
O=C(/C=C/c1ccc(O)c(O)c1)O[C@@H]1C[C@](O)(C(=O)O)C[C@@H](O)[C@H]1O | > 4 mM (inactive)
CN1CCn2c1nc(N1CCCCC1)nc2=O | > 4 mM (inactive)
Cc1cc(C)n2nc(N)nc2n1 | > 4 mM (inactive)
Cc1ccccc1NC(=O)CC1SC(N)=NC1=O (stereo unspecified) | > 4 mM (inactive)
COC(=O)C1CCc2ccccc2N1 (stereo unspecified) | > 4 mM (inactive)
Nc1cccc(F)c1-c1ncon1 | > 4 mM (inactive)
Cc1c(C(=O)O)cnn1-c1ccccc1 | > 4 mM (inactive)
O=C(O)c1ccc(-n2cccc2)cc1 | > 4 mM (inactive)
O=C(O)c1ccccc1SCC(=O)N1CCOCC1 | > 4 mM (inactive)
NC(=O)CSc1nnc2ccc(-c3ccccn3)nn12 | > 4 mM (inactive)
O=C1CSC(=Nc2cc(Cl)ccc2Cl)N1 | > 4 mM (inactive)
COc1ccc(-c2ccc(SCC(N)=O)nn2)cc1 | > 4 mM (inactive)
O=C(O)C(O)C(O)C(O)C(O)C(=O)O (stereo unspecified) | > 4 mM (inactive)
CC(C)NC(=O)Cc1c(O)c2ccccc2[nH]c1=O | > 4 mM (inactive)
CC(C)NC1CS(=O)(=O)CC1O (stereo unspecified) | > 4 mM (inactive)

Structure (SMILES) | Kd
Cc1cc(NC(=O)c2ccccc2C(=O)O)no1 | > 4 mM (inactive)
Nc1nnc(SCc2ccc3c(c2)OCO3)s1 | > 4 mM (inactive)
Cn1nccc1N | > 4 mM (inactive)
Cn1c(=O)[nH]c2nc[nH]c2c1=O | > 4 mM (inactive)
OCC1CN(Cc2ccccc2)CCO1 (stereo unspecified) | > 4 mM (inactive)
Cc1cc(C)n2nc(NCc3ccccc3)nc2n1 | > 4 mM (inactive)
O=C(Nc1cccc2ncccc12)c1cccnc1 | > 4 mM (inactive)
CC(C)C(=O)NC(=S)N1CCOCC1 | > 4 mM (inactive)
c1cncc(Nc2nc(-c3ccncc3)cs2)c1 | > 4 mM (inactive)
O=C(c1ccccc1)N1CCOCC1 | > 4 mM (inactive)
CNC(=S)Nc1ccc2c(c1)OCO2 | > 4 mM (inactive)
O=C1NC(=O)C(C(=S)Nc2ccccc2)C(=O)N1 | > 4 mM (inactive)
Cc1cc(C)c(C(N)=O)c(=S)[nH]1 | > 4 mM (inactive)
CC(=O)Nc1ccc(C(=O)NC2=NCCS2)cc1 | > 4 mM (inactive)
O=c1ccn(Cc2ccccc2)c(=O)n1Cc1ccccc1 | > 4 mM (inactive)
COC(=O)Nc1nc2c(s1)CCCC2 | > 4 mM (inactive)
O=C1CCCc2c1nc(-c1ccccc1)n2O | > 4 mM (inactive)
NC(=O)CSc1nc2ccccc2o1 | > 4 mM (inactive)
O=C(O)c1cnc2n(c1=O)CCS2 | > 4 mM (inactive)
CS(=O)(=O)Nc1ccccc1C(=O)c1ccccc1 | > 4 mM (inactive)
CC(=O)N1C(=S)NC(=O)/C1=C\c1cccnc1 | > 4 mM (inactive)
O=C(Nc1ccncc1)c1c(F)cccc1F | > 4 mM (inactive)
Nc1cncc(C(=O)O)c1 | > 4 mM (inactive)
CC1(C)NC(=O)N(CN2CCOCC2)C1=O | > 4 mM (inactive)
O=C1CCCc2c(O)cccc21 | > 4 mM (inactive)

Structure (SMILES) | Kd
COc1ccc2c(c1)CCCN2C(N)=O | > 4 mM (inactive)
O=C(C(Sc1ccccc1)c1ccccc1)N1CCOCC1 (stereo unspecified) | 0.146 mM
Cn1nc(C(=O)NC2CCCCC2)c2ccccc2c1=O | > 4 mM (inactive)
O=C(O)c1ccc2c(c1)CCO2 | > 4 mM (inactive)
O=C1NC(=O)C2C3C=CC(O3)C12 (stereo unspecified) | > 4 mM (inactive)
COc1ccc(C(=O)/C=C2\NC(=S)NC2=O)cc1 | > 4 mM (inactive)
CN(C)S(=O)(=O)c1ccccc1C#N | > 4 mM (inactive)
Cc1[nH]c2ccccc2c(=O)c1CO | > 4 mM (inactive)
CCN1CCN(CCCNc2ncnc3nc[nH]c23)CC1 | > 4 mM (inactive)
Oc1ccc([C@H]2Oc3cc(O)cc(O)c3C[C@H]2O)cc1 | > 4 mM (inactive)
O=C1CCC(=O)N1c1nc2ccccc2s1 | > 4 mM (inactive)
Cc1sc2nc(-c3ccco3)oc(=O)c2c1C | > 4 mM (inactive)
COc1c(-c2coc3cc4c(cc3c2=O)CC(OC(C)=O)C(C)(C)O4)ccc2c1C=CC(C)(C)O2 (stereo unspecified) | > 4 mM (inactive)
Cc1ccc(C(=O)Nn2cnnc2)c(Cl)c1 | > 4 mM (inactive)
O=C1C2CC=CCC2C(=O)N1c1cccc(O)c1 (stereo unspecified) | > 4 mM (inactive)
Cc1cc2cc3c(C)cc(=O)oc3c(C)c2o1 | > 4 mM (inactive)
COc1ccc2c(Cl)c(C(=O)N3CCOCC3)sc2c1 | inactive
COCCn1c(N)nc2c1c(=O)[nH]c(=O)n2C | > 4 mM (inactive)
O=C(CSc1ncccn1)Nc1nccs1 | > 4 mM (inactive)
Cc1cc(C)cc(NS(=O)(=O)N2CCCCC2)c1 | inactive
C(=Nn1cnnc1)c1ccccc1 | > 4 mM (inactive)

Reference: PubChem BioAssay AID608 (Sanford-Burnham Center for Chemical Genomics, 2007)
